Data published in patent publication US20030022820A1, “IN VIVO ACTIVATION OF TUMOR-SPECIFIC CYTOTOXIC T CELLS” (priority 1995, published 2003).
“And” between values parts separate entries of the source, which are not always exact repeats. Identical values can stand only once. Like-named read-outs stand apart in the source and are kept apart here.

What was measured:
A2.1/K^b-Tg mice = assay: Peptide priming of A2.1/K^b-Tg mice, lytic activity of peptide-specific CTL; type: in vivo
HLA-A2.1 = HLA-A2.1 (Homo sapiens, UniProt P04439, D140Y/D185E/D98H/E176V/E277Q/G131W/G231S/I119V/I121R/I166T/I218V/L300P/L318F/N151K/N90K/P208A/P217A/Q86G/Q94H/R138H/R169H/T345S); assay: Competition assay for peptide binding to HLA-A2.1 (inhibition of A clone 12 lysis of M1-pulsed EA2 targets)
[1] = test system: A2.1/K^b×CD8 or A2.1 transgenic (Tg) mice; assay: Immunization of transgenic mice with Her-2/neu peptides, cytotoxicity against peptide-pulsed T2-A2.1/K^b; type: in vivo; conditions: A2.1/K^b×CD8 or A2.1 Tg mice
Protocol: A2.1/K^b×CD8 and/or A2.1 transgenic mice were immunized with each of the peptides listed in Table 6 to determine if they could stimulate A2.1-restricted CTL. Mice were immunized with a mixture of 100 mg of the Her-2/neu peptide with 120 mg “helper” peptide in 100 ml Incomplete Freund's Adjuvant (IFA).
A2.1/K^b×CD8 or A2.1 lipopolysaccharide (LPS) -blasts were prepared as stimulators for in vitro restimulation of spleen cells from immunized mice. These were prepared by incubating splenocytes from A2/K^b or A2.1 mice in complete RPMI containing 25 mg/ml LPS and 7 mg/ml dextran sulfate at 1.5×10^6 cells/ml in a total volume of 30 ml for 3 days. […] Six days following in vitro restimulation, the CTL populations were assayed for lytic activity against T2-A2/K^b target cells preincubated with the peptide used for stimulation (15 mM). The resultant Her-2/neu peptide-specific CTL populations were maintained in vitro by weekly restimulation. […]
Spleen cells from injected animals were restimulated in vitro with irradiated syngeneic cells pulsed with the peptide used for in vivo priming. Immunogenicity was evaluated by assaying these cultured cells for cytotoxicity against T2-A2.1/K^b target cells pulsed with the priming peptide. […]

JY = assay: Cytotoxicity assay, lysis of human tumors by H3 and H7 specific CTL; type: cell-based; design: scale not given here
Protocol: (§1) […] target cells were incubated at 37° C. with […] of sodium ^51Cr chromate for 90 minutes in the presence or absence of specific peptide. Cells were washed three times and resuspended in 5% RPMI. For the assay, […] ^51Cr-labeled target cells were incubated with different concentrations of effector cells in a final volume of […] in U-bottomed 96-well plates. Supernatants were removed after 4-7 hrs at 37° C., and the percent specific lysis was determined by the following formula: [formula]
(§2) Tumor cells were preincubated for 24 hours prior to the assay in media supplemented with γ-interferon (γ-IFN, 20 ng/ml) plus tumor necrosis factor-α (TNF-α, 3 ng/ml). It is known that such pretreatment of tumor cells increases the expression of MHC I and adhesion molecules such as ICAM I on the surface of the cell thus enhancing their sensitivity to lysis by CTL. (See, e.g., Fisk, et al., Lympho. & Cytokine Res. 13: 125-131 (1994); Fady, et al., Cancer Immunol. Immunother. 37: 329-336 (1993).)

MALME-3M = assay: as above; type: cell-based; design: scale not given here
Protocol: as §1, §2

MDA.MB435 = assay: as above; type: cell-based; design: scale not given here
Protocol: as §1, §2

T98G = assay: as above; type: cell-based
Protocol: as §1, §2

ST486 = assay: as above; type: cell-based
Protocol: as §1, §2

SKMEL-5 = assay: as above; type: cell-based
Protocol: as §1, §2

LG-2 = assay: as above; type: cell-based
Protocol: as §1, §2

SAOS.175 = assay: as above; type: cell-based
Protocol: as §1, §2

CASKI = assay: as above; type: cell-based
Protocol: as §1, §2

U2-OS = assay: as above; type: cell-based
Protocol: as §1, §2

OVCAR-5 = assay: as above; type: cell-based
Protocol: as §1, §2

SV80 = assay: as above; type: cell-based
Protocol: as §1, §2

[2] = E:T 60:1, T2A2/K^b targets pulsed with two mg of peptide, highest of at least three individual mice
[3] = peptide-priming of A2.1/K^b-Tg mice

**Q.** Which “Lytic Activity by Peptide-Specific CTL After Priming of A2.1/K^b-Tg Mice [Specific 51Cr release (%)]” value (shortened to “Lytic Activity … [Specific 51Cr release (%)]”) (A2.1/K^b-Tg mice; mouse, in vivo) does the source give for AAPPVAPA [hu-wt-p53: 69-76] here?
**A.** The value was 0%.

**Q.** Which “Lytic Activity … [Specific 51Cr release (%)]” value (A2.1/K^b-Tg mice; [2]) does the source give for AAPPVAPAPA [hu-wt-p53: 69-78] here?
**A.** Its value is 0%.

**Q.** For AAPPVAPAPAA [hu-wt-p53: 69-79], which “Lytic Activity … [Specific 51Cr release (%)]” value (A2.1/K^b-Tg mice; [2]) is on record?
**A.** The value was 0%.

**Q.** With AAPTPAAPA [hu-wt-p53: 78-86] as the sequence, how does the “Lytic Activity … [Specific 51Cr release (%)]” value (A2.1/K^b-Tg mice; [2]) read?
**A.** The value was 0%.

**Q.** Which “(%) [inhibition of A2.1-binding of M1 (58-66)]” value (HLA-A2.1) does the source give for “ASNENMETM [Flu NP 1934: 366-374, reference compound]” here?
**A.** Its value is 4%.

**Q.** How did the “Lytic Activity … [Specific 51Cr release (%)]” value (A2.1/K^b-Tg mice; [2]) turn out when DLMLSPDDI [hu-wt-p53: 42-50] was run?
**A.** Its value is 0%.

**Q.** GLAPPQHLI [hu-wt-p53: 187-195] was tested. Which “A2.1-binding activity / affinity, in words” value (HLA-A2.1) did it give?
**A.** The value was “high”.

**Q.** What about the “Lytic Activity … [Specific 51Cr release (%)]” value (A2.1/K^b-Tg mice; [2]) of the same sequence?
**A.** Its value is 1%.

**Q.** And the “A2.1/K^b-restricted peptide-specific CTL response, in words” value (A2.1/K^b-Tg mice; [3])?
**A.** The value was “lack of CTL responsiveness”.

**Q.** How did the “ability to stimulate a CTL response in Tg mice, in words” value [1] turn out when IISAVVGIL [Peptide H11] was run?
**A.** The value was “could not elicit a response”.

**Q.** What does the source list for “ILKEPVHGV [HIV-1 RT: 476-484, reference compound]”?
**A.** (%) [inhibition of A2.1-binding of M1 (58-66)] (HLA-A2.1): 72%; A2.1/K^b-restricted peptide-specific CTL response, in words (A2.1/K^b-Tg mice; mouse, in vivo): could mount an A2.1/K^b-restricted CTL response; Lytic Activity by Peptide-Specific CTL After Priming of A2.1/K^b-Tg Mice [Specific 51Cr release (%)] (A2.1/K^b-Tg mice; mouse, in vivo): 85%

**Q.** Which results are given for ITLEDSSGNL [hu-wt-p53: 255-264]?
**A.** A2.1-binding activity / affinity, in words (HLA-A2.1): intermediate; Lytic Activity by Peptide-Specific CTL After Priming of A2.1/K^b-Tg Mice [Specific 51Cr release (%)] (A2.1/K^b-Tg mice; [2]): 3%; A2.1/K^b-restricted peptide-specific CTL response, in words (A2.1/K^b-Tg mice; [3]): lack of CTL responsiveness

**Q.** Which “Killing of Tumors Expressing Her-2/neu” value (JY) does the source give for KLVGKLNWA [HIV-9K, reference compound] here?
**A.** Its value is 2 and 1.

**Q.** And the “Killing of Tumors Expressing Her-2/neu” value (MALME-3M)?
**A.** The value was 2 and 1.

**Q.** And the “Killing of Tumors Expressing Her-2/neu” value (MDA.MB435)?
**A.** The value was 4 and 3.

**Q.** And the “Killing of Tumors Expressing Her-2/neu” value (T98G)?
**A.** Its value is 9 and 13.

**Q.** And the “Killing of Tumors Expressing Her-2/neu” value (ST486)?
**A.** The value was 1.

**Q.** What about the “Killing of Tumors Expressing Her-2/neu” value (SKMEL-5) of the same sequence?
**A.** Its value is 5 and 4.

**Q.** And the “Killing of Tumors Expressing Her-2/neu” value (LG-2)?
**A.** Its value is 1.

**Q.** And the “Killing of Tumors Expressing Her-2/neu” value (SAOS.175)?
**A.** The value was 18 and 11.

**Q.** And the “Killing of Tumors Expressing Her-2/neu” value (CASKI)?
**A.** The value was 8 and 11.

**Q.** What about the “Killing of Tumors Expressing Her-2/neu” value (U2-OS) of the same sequence?
**A.** Its value is 18 and 24.

**Q.** What about the “Killing of Tumors Expressing Her-2/neu” value (OVCAR-5) of the same sequence?
**A.** The value was 10 and 12.

**Q.** What about the “Killing of Tumors Expressing Her-2/neu” value (SV80) of the same sequence?
**A.** Its value is 2.

**Q.** How did the “A2.1-binding activity / affinity, in words” value (HLA-A2.1; competition with M1 (58-66)) turn out when LLGRDSFEV [mur-wt-p53: 261-269] was run?
**A.** The value was “highest A2.1-binding activity of all p53 peptides tested”.

**Q.** What about the “Lytic Activity … [Specific 51Cr release (%)]” value (A2.1/K^b-Tg mice; [2]) of the same sequence?
**A.** Its value is 10%.

**Q.** And the “A2.1/K^b-restricted peptide-specific CTL response, in words” value (A2.1/K^b-Tg mice; [3])?
**A.** Its value is “No significant response”.
